Columns and labels:
[1] = target: MCL-1/Bim interaction (recombinant human MCL-1 protein, residues 171-327; biotinylated human Bim peptide, residues 51-76) (Homo sapiens (Human), UniProt Q07820); assay: MCL-1/Bim Binding AlphaLISA Assay; conditions: 0.0625 nM 6xHis-Mcl-1 (171-327), 0.0625 nM biotinylated-Bim peptide
Procedure, shortened: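 Compounds first sat 1 h with MCL-1 (171-327, 0.0625 nM), followed by 2 h with biotin-Bim 51-76 (0.0625 nM), then sequential 1 h anti-His acceptor and streptavidin donor bead steps; buffer Hepes pH 7.5 with NaCl, Brij 35, DTT, BSA. AlphaScreen signal converted to % inhibition using DMSO (negative) and protein/peptide-free (positive) controls.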

[2] = tested on: SKBR3 cells; assay: SKBR3 Cell Viability Assay (CellTiter Glo); type: cell-based; conditions: Homo sapiens, SK-BR-3, 72 h, CellTiter Glo luminescence, read-out: MCL-1 CV SKBR3 EC50
Procedure, shortened: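 Viability read as CellTiter Glo luminescence after 72 h of compound exposure at 37° C./5% CO2, using 6,000 SKBR3 cells per well in McCoy 5A with 10% FBS. Percent inhibition scaled between DMSO wells and 10 μM puromycin wells.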

Sequence of MCL-1/Bim interaction (recombinant human MCL-1 protein, residues 171-327; biotinylated human Bim peptide, residues 51-76) (Q07820 171-327): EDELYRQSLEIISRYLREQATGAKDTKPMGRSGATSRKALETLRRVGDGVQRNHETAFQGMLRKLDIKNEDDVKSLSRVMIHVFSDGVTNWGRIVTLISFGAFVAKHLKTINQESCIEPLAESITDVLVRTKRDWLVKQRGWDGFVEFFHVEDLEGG

SMILES | IC50 [1] | EC50 [2]
CO[C@H]1/C=C/C[C@H](C)C[S@@](=O)(NC(=O)c2cn(C)nc2N(C)C)=NC(=O)c2ccc3c(c2)N(C[C@@H]2CC[C@H]21)C[C@@]1(CCCc2cc(Cl)ccc21)CO3 [Example 213] | 0.076 nM | 57 nM
CO[C@H]1/C=C/CCC[S@@](=O)(NC(=O)COC2CCN(C(=O)N(C)C)CC2)=NC(=O)c2ccc3c(c2)N(C[C@@H]2CC[C@H]21)C[C@@]1(CCCc2cc(Cl)ccc21)CO3 [Example 417] | 0.092 nM | 403 nM
COc1nn(C)cc1C(=O)N[S@@]1(=O)=NC(=O)c2ccc3c(c2)N(C[C@@H]2CC[C@H]2[C@@H](OC)/C=C/[C@@H](OC)CC1)C[C@@]1(CCCc2cc(Cl)ccc21)CO3 [Example 394] | 1.72 nM | 4750 nM
COC(=O)N1CCC(OCC(=O)N[S@@]2(=O)=NC(=O)c3ccc4c(c3)N(C[C@@H]3CC[C@H]3[C@@H](OC)/C=C/C[C@H](C)[C@H]2C)C[C@@]2(CCCc3cc(Cl)ccc32)CO4)CC1 [Example 418] | 0.197 nM | 335 nM
COCc1oc(C(=O)N[S@@]2(=O)=NC(=O)c3ccc4c(c3)N(C[C@@H]3CC[C@H]3[C@@H](OC)/C=C/C[C@H](C)C2)C[C@@]2(CCCc3cc(Cl)ccc32)CO4)cc1C [Example 339] | 0.07 nM | 53.2 nM
CO[C@H]1/C=C/CCC[S@@](=O)(NC(=O)CCc2cnccn2)=NC(=O)c2ccc3c(c2)N(C[C@@H]2CC[C@H]21)C[C@@]1(CCCc2cc(Cl)ccc21)CO3 [Example 35] | 0.2 nM | 266 nM
CO[C@H]1CCC[C@H](C)C[S@@](=O)(NC(=O)NC2CC2)=NC(=O)c2ccc3c(c2)N(C[C@@H]2CC[C@H]21)C[C@@]1(CCCc2cc(Cl)ccc21)CO3 [Example 170] | 0.06 nM | 210 nM
CO[C@H]1/C=C/CCC[S@@](=O)(NC(=O)Cc2ccnn2C)=NC(=O)c2ccc3c(c2)N(C[C@@H]2CC[C@H]21)C[C@@]1(CCCc2cc(Cl)ccc21)CO3 [Example 29] | 0.6 nM | 1840 nM

Molecules with a lower IC50 [1], results first:

IC50 [1] | EC50 [2] | SMILES
0.047 nM | 131 nM | CO[C@H]1/C=C/C[C@H](C)C[S@@](=O)(NC(=O)CO[C@H]2CCOC[C@H]2F)=NC(=O)c2ccc3c(c2)N(C[C@@H]2CC[C@H]21)C[C@@]1(CCCc2cc(Cl)ccc21)CO3 [Example 416]
0.046 nM | 162 nM | COCC1(NC(=O)N[S@@]2(=O)=NC(=O)c3ccc4c(c3)N(C[C@@H]3CC[C@H]3[C@@H](OC)/C=C/C[C@H](C)C2)C[C@@]2(CCCc3cc(Cl)ccc32)CO4)CC1 [Example 131]
0.038 nM | 72 nM | COCCNC(=O)N[S@@]1(=O)=NC(=O)c2ccc3c(c2)N(C[C@@H]2CC[C@H]2[C@@H](OC)/C=C/C[C@H](C)C1)C[C@@]1(CCCc2cc(Cl)ccc21)CO3 [Example 132]
0.033 nM | 130 nM | CO[C@H]1/C=C/C[C@H](C)C[S@@](=O)(NC(=O)N[C@H]2C[C@@H]2CO)=NC(=O)c2ccc3c(c2)N(C[C@@H]2CC[C@H]21)C[C@@]1(CCCc2cc(Cl)ccc21)CO3 [Example 171]

From US10703733B2, “MCL-1 inhibitors” (Gilead Sciences, Inc., priority 2018, dated 2020)
